Series [1] deals with IL-6 cytokine output from THP-1s. The series can be described thus: THP-1 AlphaLISA IL-6 cytokine assay. In kind it is cell-based, human. The conditions noted are these: Homo sapiens; PMA-differentiated THP-1 cells, LPS 24 hr then Nigericin 1 hour. An outline of the steps: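 Percent inhibition, normalised to plus- and minus-LPS controls, was plotted against concentration to derive IC50. Differentiated THP-1 cells received compound 30 min ahead of LPS (24 h) and a 1 h nigericin pulse; AlphaLISA quantified supernatant cytokine.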
A general note: In Alpha technology, singlet oxygen from a donor bead excites a nearby acceptor bead.

The nature of series [2]: Mouse pharmacokinetic study, oral administration. It counts as in vivo. The conditions noted are these: male, C57BL/6, mouse, plasma, po, 100 mg/kg, plasma, male C57BL/6 mice, oral gavage 100 mg/kg; for concentration at 0.25 h: read-out: Parent compound concentrations following oral administration, Time 0.25 h; for concentration at 0.5 h: read-out: Parent compound concentrations following oral administration, Time 0.5 h; for concentration at 1 h: read-out: Parent compound concentrations following oral administration, Time 1 h; for concentration at 2 h: read-out: Parent compound concentrations following oral administration, Time 2 h; for concentration at 4 h: read-out: Parent compound concentrations following oral administration, Time 4 h; for concentration at 8 h: read-out: Parent compound concentrations following oral administration, Time 8 h; for concentration at 24 h: read-out: Parent compound concentrations following oral administration, Time 24 h; for concentration at 0.083 h: read-out: Parent compound concentrations following oral administration, Time 0.083 h; for concentration at 6 h: read-out: Parent compound concentrations following oral administration, Time 6 h. An outline of the steps: (§1)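 Young adult male C57BL/6 mice get a single 10 mg/kg IV or 100 mg/kg oral dose. Semi-serial plasma sampling, three mice per point, and LC-MS/MS quantitation follow.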

The nature of series [3]: Hepatocyte stability assay (mouse). In kind it is in vitro ADME. The conditions noted are these: cryopreserved hepatocytes, 10 μM compound, 0.5×10^6 cells/mL, 60 minutes, read-out: T½. An outline of the steps:
(§2)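 Cryopreserved hepatocytes (viability >70%), 0.5×10^6 cells/mL in Leibovitz buffer, incubated at 37 °C with 10 μM compound (0.1% DMSO), duplicates; buffer-only incubations as negative control. Samples at 0-60 min quenched in acetonitrile, parent measured by LC-MS/MS; half-life and Clint (μL min^−1 10^−6 cells) from ln % remaining versus time slope.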

Another series concerns hepatocytes. Description: Hepatocyte stability assay (mouse). The conditions noted are these: 10 μM compound, 0.5×10^6 cells/mL, 60 minutes. In kind it is in vitro ADME. An outline of the steps: as §2
A short description of series [4]: Mouse pharmacokinetic study, intravenous dosing. It counts as in vivo. The conditions noted are these: male, C57BL/6, mouse, iv, plasma, 10 mg/kg i.v., read-out: Parent compound concentration following intravenous administration. An outline of the steps: as §1

From patent US12390437B2, “Itaconic acid derivatives and uses thereof intreating an inflammatory disease or a disease associated with an undesirable immune response” (Sitryx Therapeutics Limited, priority 2019, dated 2025) come the findings set out here.

The compound `C=C(CC(=O)OC1CCCCC1)C(=O)OCC(=O)O` [Example 91, 2-((4-(cyclohexyloxy)-2-methylene-4-oxobutanoyl)oxy)acetic acid] came in with an IC50 in series [1] of 33.8 µM. Besides, in series [2], the concentration at 0.25 h turned out to be 8860 ng/mL, the concentration at 0.5 h amounted to 6240 ng/mL, the concentration at 1 h came to 1920 ng/mL and the concentration at 2 h was found to be 450 ng/mL. Besides, in series [2], the concentration at 4 h was found to be 33 ng/mL, the concentration at 8 h amounted to 19 ng/mL and the concentration at 24 h is 13 ng/mL. The half-life at 10 μM in series [3] amounted to 48 min. In addition, in the series on hepatocytes, the “CIint (μL min^−1 10^−6 cells)” value is reported as 29 μL min^−1 10^−6 cells.

Regarding `C=C(CC(=O)OC1CCCCC1)C(=O)OCCC(=O)O` [Example 87, 3-((4-(cyclohexyloxy)-2-methylene-4-oxobutanoyl)oxy)propanoic acid], in series [1], it took 100 µM to reach half-maximal inhibition (IC50). In addition, in series [2], the concentration at 0.25 h came out at 35300 ng/mL, the concentration at 0.5 h is 15900 ng/mL, the concentration at 1 h is 8520 ng/mL and the concentration at 2 h worked out at 1460 ng/mL. In series [2], the concentration at 4 h came out at 198 ng/mL, the concentration at 8 h was 31 ng/mL and the concentration at 24 h was below 14 ng/mL. Further, in series [3], the half-life at 10 μM was determined as 65 min. Further, in the series with hepatocytes, the “CIint (μL min^−1 10^−6 cells)” value is recorded as 21 μL min^−1 10^−6 cells.

Compound `C=C(CC(=O)O[C@@H](C)CCCCCC)C(=O)OCCC(=O)O` [Example 84, (S)-3-((2-methylene-4-(octan-2-yloxy)-4-oxobutanoyl)oxy)propanoic acid] gave a half-maximal inhibitory concentration (IC50) in series [1] of 22 µM. Further, in series [4], the concentration at 0.05 h was 5580 ng/mL, the concentration at 0.25 h was 1030 ng/mL, the concentration at 0.5 h amounted to 217 ng/mL and the concentration at 1 h is 34 ng/mL. Besides, in series [4], the concentration at 2 h came to 6.5 ng/mL, the concentration at 4 h is below 2 ng/mL and the concentration at 6 h is below 2 ng/mL. In series [2], the concentration at 0.25 h is 9090 ng/mL, the concentration at 0.5 h came out at 5120 ng/mL, the concentration at 1 h stood at 3310 ng/mL and the concentration at 2 h is 1000 ng/mL. Further, in series [2], the concentration at 4 h was determined as 368 ng/mL, the concentration at 8 h was 217 ng/mL and the concentration at 24 h was below 31 ng/mL. In series [3], the half-life at 10 μM turned out to be 6 min. In addition, the “CIint (μL min^−1 10^−6 cells)” value with hepatocytes came to 220 μL min^−1 10^−6 cells.

In series [1], `C=C(CC(=O)OCCCCCCCC)C(=O)OCC(=O)O` [Example 49, 2-((2-methylene-4-(octyloxy)-4-oxobutanoyl)oxy)acetic acid] had an IC50 of 5.5 µM. Besides, in series [2], the concentration at 0.25 h was 536 ng/mL, the concentration at 0.5 h was 843 ng/mL, the concentration at 1 h is 344 ng/mL and the concentration at 2 h is 111 ng/mL. Besides, in series [2], the concentration at 4 h was 12 ng/mL, the concentration at 8 h came out at 4.5 ng/mL and the concentration at 24 h was below 1.5 ng/mL. The half-life at 10 μM in series [3] stood at 10 min. Moreover, the “CIint (μL min^−1 10^−6 cells)” value with hepatocytes was determined as 138 μL min^−1 10^−6 cells.

The compound `C=C(CC(=O)OC1CC2(CCC2)C1)C(=O)OCC(=O)O` [Example 96, 2-((2-methylene-4-oxo-4-(spiro[3.3]heptan-2-yloxy)butanoyl)oxy)acetic acid] came in with a half-maximal inhibitory concentration (IC50) in series [1] of 47.1 µM. Also, in series [4], the concentration at 0.05 h came to 15100 ng/mL, the concentration at 0.133 h is 3590 ng/mL, the concentration at 0.25 h worked out at 659 ng/mL and the concentration at 0.5 h was found to be 169 ng/mL. In addition, in series [4], the concentration at 1 h was 6.4 ng/mL, the concentration at 2 h amounted to 3 ng/mL, the concentration at 4 h was below 0.8 ng/mL and the concentration at 6 h was below 0.8 ng/mL. Also, the concentration at 8 h in series [4] is below 0.8 ng/mL. Moreover, in series [2], the concentration at 0.083 h was determined as 15300 ng/mL, the concentration at 0.25 h was found to be 4770 ng/mL, the concentration at 0.5 h came to 3780 ng/mL and the concentration at 1 h is 1550 ng/mL. Further, in series [2], the concentration at 2 h came to 810 ng/mL, the concentration at 4 h worked out at 856 ng/mL, the concentration at 6 h stood at 330 ng/mL and the concentration at 8 h was found to be 443 ng/mL. The concentration at 24 h in series [2] is below 0.8 ng/mL. Besides, the half-life at 10 μM in series [3] came to 12 min. Besides, the “CIint (μL min^−1 10^−6 cells)” value in the series on hepatocytes is 112 μL min^−1 10^−6 cells.

As for `C=C(CC(=O)OC1CCCCCCC1)C(=O)OCC(=O)O` [Example 90, 2-((4-(cyclooctyloxy)-2-methylene-4-oxobutanoyl)oxy)acetic acid], the midpoint of inhibition in series [1], the IC50, lay at 9.8 µM. Also, in series [4], the concentration at 0.05 h is 19200 ng/mL, the concentration at 0.133 h was found to be 7160 ng/mL, the concentration at 0.25 h came to 2020 ng/mL and the concentration at 0.5 h came to 1600 ng/mL. Further, in series [4], the concentration at 1 h was 89 ng/mL, the concentration at 2 h was 3.6 ng/mL, the concentration at 4 h turned out to be 2.8 ng/mL and the concentration at 6 h is 1.7 ng/mL. Besides, the concentration at 8 h in series [4] is 1.2 ng/mL. For the same compound, in series [2], the concentration at 0.083 h was 22900 ng/mL, the concentration at 0.25 h is 10600 ng/mL, the concentration at 0.5 h stood at 6200 ng/mL and the concentration at 1 h was determined as 3370 ng/mL. Also, in series [2], the concentration at 2 h stood at 3470 ng/mL, the concentration at 4 h was 1640 ng/mL, the concentration at 6 h stood at 1050 ng/mL and the concentration at 8 h was determined as 500 ng/mL. Further, the concentration at 24 h in series [2] was 1.1 ng/mL. The half-life at 10 μM in series [3] is 30 min. Also, the “CIint (μL min^−1 10^−6 cells)” value in the series with hepatocytes is given as 47 μL min^−1 10^−6 cells.

On to `C=C(CC(=O)OCCCCCCCC)C(=O)OCCC(=O)O` [Example 80, 3-((2-methylene-4-(octyloxy)-4-oxobutanoyl)oxy)propanoic Acid], for which, in series [1], the IC50 is 5.3 µM. In addition, in series [2], the concentration at 0.25 h came out at 850 ng/mL, the concentration at 0.5 h was determined as 1150 ng/mL, the concentration at 1 h was determined as 715 ng/mL and the concentration at 2 h is 173 ng/mL. In series [2], the concentration at 4 h was 67 ng/mL, the concentration at 8 h is below 1.5 ng/mL and the concentration at 24 h is below 1.5 ng/mL. The half-life at 10 μM in series [3] was 9 min. Moreover, in the series with hepatocytes, the “CIint (μL min^−1 10^−6 cells)” value is 158 μL min^−1 10^−6 cells.

For `C=C(CC(=O)O[C@@H](C)CCCCCC)C(=O)OCCc1nnn[nH]1` [Example 129, (S)-1-(2-(1H-tetrazol-5-yl)ethyl) 4-octan-2-yl 2-methylenesuccinate], in series [4], the concentration at 0.05 h was found to be 2920 ng/mL, the concentration at 0.133 h worked out at 872 ng/mL, the concentration at 0.25 h came to 309 ng/mL and the concentration at 0.5 h was 96 ng/mL. Also, in series [4], the concentration at 1 h worked out at 7.7 ng/mL, the concentration at 2 h is below 1.6 ng/mL, the concentration at 4 h is below 1.6 ng/mL and the concentration at 6 h was below 1.6 ng/mL. The concentration at 8 h in series [4] is below 1.6 ng/mL. For the same compound, in series [2], the concentration at 0.083 h worked out at 305 ng/mL, the concentration at 0.25 h is 1030 ng/mL, the concentration at 0.5 h worked out at 109 ng/mL and the concentration at 1 h amounted to 255 ng/mL. In series [2], the concentration at 2 h worked out at 61 ng/mL, the concentration at 4 h turned out to be 13 ng/mL, the concentration at 6 h was determined as 16 ng/mL and the concentration at 8 h worked out at 11 ng/mL. Also, the concentration at 24 h in series [2] was determined as 3.5 ng/mL. In series [3], the half-life at 10 μM turned out to be 4 min. Moreover, the “CIint (μL min^−1 10^−6 cells)” value in the series on hepatocytes is 378 μL min^−1 10^−6 cells.

A word on the IC50: it is the concentration that inhibits the measured activity by half. A low value points to greater potency.
